Data: PubChem BioAssay AID1259407 (Chemical Carcinogenesis Research Information System (CCRIS), 2018)
Calls of active or inactive are those of the source. The rule behind the calls is not given here.

Tested on: CCRIS mutagenicity, Ames/micronucleus/aberration tests
Assay: CCRIS mutagenicity studies
[1] = Test System: AMES SALMONELLA TYPHIMURIUM, Strain/Indicator: TA98, Metabolic Activation: NONE, Method: PREINCUBATION
[2] = Test System: AMES SALMONELLA TYPHIMURIUM, Strain/Indicator: TA98, Metabolic Activation: RAT, LIVER, S-9, AROCLOR 1254, Method: PREINCUBATION
[3] = Test System: AMES SALMONELLA TYPHIMURIUM, Strain/Indicator: TA100, Metabolic Activation: NONE, Method: PREINCUBATION
[4] = Test System: AMES SALMONELLA TYPHIMURIUM, Strain/Indicator: TA100, Metabolic Activation: RAT, LIVER, S-9, AROCLOR 1254, Method: PREINCUBATION
[5] = Test System: AMES SALMONELLA TYPHIMURIUM, Strain/Indicator: TA1535, Metabolic Activation: NONE, Method: PREINCUBATION
[6] = Test System: AMES SALMONELLA TYPHIMURIUM, Strain/Indicator: TA1537, Metabolic Activation: NONE, Method: PREINCUBATION
[7] = Test System: AMES SALMONELLA TYPHIMURIUM, Strain/Indicator: TA100, Metabolic Activation: NONE, Method: STANDARD PLATE

With `CC(C)(C#N)N=NC(C)(C)C#N` the mutagenic call (Test System: AMES SALMONELLA TYPHIMURIUM, Strain/Indicator: TA98, Metabolic Activation: HAMSTER, LIVER, S-9, AROCLOR 1254, Method: PREINCUBATION) was “inactive; negative”, the mutagenic call [1] was “inactive; negative” and the mutagenic call (Test System: AMES SALMONELLA TYPHIMURIUM, Strain/Indicator: TA98, Metabolic Activation: RAT LIVER S-9, PHENOBARBITAL AND BETA-NAPHTHOFLAVONE, Method: PREINCUBATION) was “inactive; negative”. The mutagenic call [2] was “inactive; negative”, the mutagenic call (Test System: AMES SALMONELLA TYPHIMURIUM, Strain/Indicator: TA100, Metabolic Activation: HAMSTER, LIVER, S-9, AROCLOR 1254, Method: PREINCUBATION) was “inactive; negative” and the mutagenic call [3] was “inactive; negative”. For the same molecule, the mutagenic call (Test System: AMES SALMONELLA TYPHIMURIUM, Strain/Indicator: TA100, Metabolic Activation: RAT LIVER S-9, PHENOBARBITAL AND BETA-NAPHTHOFLAVONE, Method: PREINCUBATION) was “inactive; negative”, the mutagenic call [4] was “inactive; negative” and the mutagenic call (Test System: AMES SALMONELLA TYPHIMURIUM, Strain/Indicator: TA1535, Metabolic Activation: HAMSTER, LIVER, S-9, AROCLOR 1254, Method: PREINCUBATION) was “inactive; negative”. The mutagenic call [5] was “inactive; negative”, the mutagenic call (Test System: AMES SALMONELLA TYPHIMURIUM, Strain/Indicator: TA1535, Metabolic Activation: RAT LIVER S-9, PHENOBARBITAL AND BETA-NAPHTHOFLAVONE, Method: PREINCUBATION) was “inactive; negative” and the mutagenic call (Test System: AMES SALMONELLA TYPHIMURIUM, Strain/Indicator: TA1535, Metabolic Activation: RAT, LIVER, S-9, AROCLOR 1254, Method: PREINCUBATION) was “inactive; negative”. The mutagenic call (Test System: AMES SALMONELLA TYPHIMURIUM, Strain/Indicator: TA1537, Metabolic Activation: HAMSTER, LIVER, S-9, AROCLOR 1254, Method: PREINCUBATION) was “inactive; negative”, the mutagenic call [6] was “inactive; negative” and the mutagenic call (Test System: AMES SALMONELLA TYPHIMURIUM, Strain/Indicator: TA1537, Metabolic Activation: RAT LIVER S-9, PHENOBARBITAL AND BETA-NAPHTHOFLAVONE, Method: PREINCUBATION) was “inactive; negative”. The mutagenic call (Test System: AMES SALMONELLA TYPHIMURIUM, Strain/Indicator: TA1537, Metabolic Activation: RAT, LIVER, S-9, AROCLOR 1254, Method: PREINCUBATION) was “inactive; negative”, the mutagenic call (Test System: AMES SALMONELLA TYPHIMURIUM, Strain/Indicator: TA1538, Metabolic Activation: HAMSTER, LIVER, S-9, AROCLOR 1254, Method: PREINCUBATION) was “inactive; negative” and the mutagenic call (Test System: AMES SALMONELLA TYPHIMURIUM, Strain/Indicator: TA1538, Metabolic Activation: NONE, Method: PREINCUBATION) was “inactive; negative”. For the same molecule, the mutagenic call (Test System: AMES SALMONELLA TYPHIMURIUM, Strain/Indicator: TA1538, Metabolic Activation: RAT LIVER S-9, PHENOBARBITAL AND BETA-NAPHTHOFLAVONE, Method: PREINCUBATION) was “inactive; negative”, the mutagenic call (Test System: AMES SALMONELLA TYPHIMURIUM, Strain/Indicator: TA1538, Metabolic Activation: RAT, LIVER, S-9, AROCLOR 1254, Method: PREINCUBATION) was “inactive; negative” and the mutagenic call (Test System: E.COLI, Strain/Indicator: WP2UVRA, Metabolic Activation: NONE, Method: PREINCUBATION) was “inactive; negative”. The mutagenic call (Test System: E.COLI, Strain/Indicator: WP2UVRA, Metabolic Activation: RAT LIVER S-9, PHENOBARBITAL AND BETA-NAPHTHOFLAVONE, Method: PREINCUBATION) was “inactive; negative”, the mutagenic call (Test System: MOUSE LYMPHOMA, Strain/Indicator: L5178Y (TK+/TK-), Metabolic Activation: NONE, Method: SUSPENSION/PLATE) was “inactive; negative. reevaluation of results: negative” and the mutagenic call (Test System: MOUSE LYMPHOMA, Strain/Indicator: L5178Y (TK+/TK-), Metabolic Activation: RAT, LIVER, S-9, AROCLOR 1254, Method: SUSPENSION/PLATE) was “inactive; negative. reevaluation of results: negative”.

In the case of `CCCCCC(N)=O`, the mutagenic call (Test System: AMES SALMONELLA TYPHIMURIUM, Strain/Indicator: TA98, Metabolic Activation: HAMSTER, LIVER, S-9, AROCLOR 1254 (10%), Method: PREINCUBATION) is reported as “inactive; negative”, the mutagenic call [1] is reported as “inactive; negative” and the mutagenic call (Test System: AMES SALMONELLA TYPHIMURIUM, Strain/Indicator: TA98, Metabolic Activation: RAT, LIVER, S-9, AROCLOR 1254 (10%), Method: PREINCUBATION) is reported as “inactive; negative”. For the same molecule, the mutagenic call (Test System: AMES SALMONELLA TYPHIMURIUM, Strain/Indicator: TA100, Metabolic Activation: HAMSTER, LIVER, S-9, AROCLOR 1254 (10%), Method: PREINCUBATION) was “inactive; negative”, the mutagenic call [3] was “inactive; negative” and the mutagenic call (Test System: AMES SALMONELLA TYPHIMURIUM, Strain/Indicator: TA100, Metabolic Activation: RAT, LIVER, S-9, AROCLOR 1254 (10%), Method: PREINCUBATION) was “inactive; negative”. The mutagenic call (Test System: AMES SALMONELLA TYPHIMURIUM, Strain/Indicator: TA1535, Metabolic Activation: HAMSTER, LIVER, S-9, AROCLOR 1254 (10%), Method: PREINCUBATION) was “inactive; negative”, the mutagenic call [5] was “inactive; negative” and the mutagenic call (Test System: AMES SALMONELLA TYPHIMURIUM, Strain/Indicator: TA1535, Metabolic Activation: RAT, LIVER, S-9, AROCLOR 1254 (10%), Method: PREINCUBATION) was “inactive; negative”. The mutagenic call (Test System: AMES SALMONELLA TYPHIMURIUM, Strain/Indicator: TA1537, Metabolic Activation: HAMSTER, LIVER, S-9, AROCLOR 1254 (10%), Method: PREINCUBATION) was “inactive; negative”, the mutagenic call [6] was “inactive; negative” and the mutagenic call (Test System: AMES SALMONELLA TYPHIMURIUM, Strain/Indicator: TA1537, Metabolic Activation: RAT, LIVER, S-9, AROCLOR 1254 (10%), Method: PREINCUBATION) was “inactive; negative”.

In the case of `Cc1cnc(C)cn1`, the mutagenic call [1] is reported as “inactive; negative”, the mutagenic call [2] is reported as “inactive; negative” and the mutagenic call [3] is reported as “inactive; negative”. For the same molecule, the mutagenic call [4] was “inactive; negative”, the mutagenic call (Test System: AMES SALMONELLA TYPHIMURIUM, Strain/Indicator: TA102, Metabolic Activation: NONE, Method: PREINCUBATION) was “inactive; negative” and the mutagenic call (Test System: AMES SALMONELLA TYPHIMURIUM, Strain/Indicator: TA102, Metabolic Activation: RAT, LIVER, S-9, AROCLOR 1254, Method: PREINCUBATION) was “inactive; negative”.

In the case of `Oc1cccc2c3ccccc3c3cc4ccccc4cc3c12`, the mutagenic call [4] is reported as “inactive; negative”.

In the case of `O=[C]/C=C\C(=O)CC(=O)CC(=O)O`, the mutagenic call (Test System: CHINESE HAMSTER V-79, Strain/Indicator: V-79 (HGPRT)/6-THIOGUANINE, Metabolic Activation: NONE) is reported as “inactive; negative”.

With `Cn1c2ccccc2c2cc(N)ccc21` the mutagenic call (Test System: AMES SALMONELLA TYPHIMURIUM, Strain/Indicator: TA98, Metabolic Activation: NONE, Method: STANDARD PLATE) was “active; positive”, the mutagenic call (Test System: AMES SALMONELLA TYPHIMURIUM, Strain/Indicator: TA98, Metabolic Activation: RAT LIVER S-9, AROCLOR 1254, Method: STANDARD PLATE) was “active; positive” and the mutagenic call [7] was “active; positive”. The mutagenic call (Test System: AMES SALMONELLA TYPHIMURIUM, Strain/Indicator: TA100, Metabolic Activation: RAT LIVER S-9, AROCLOR 1254, Method: STANDARD PLATE) was “active; positive”.

`Cc1nc2c(ccc3ccc4ccc(O)cc4c32)[nH]1` was tested, and the mutagenic call (Test System: AMES SALMONELLA TYPHIMURIUM, Strain/Indicator: TA98, Metabolic Activation: RAT, LIVER, S-9, AROCLOR 1254, Method: STANDARD PLATE) was “active; positive” and the mutagenic call (Test System: AMES SALMONELLA TYPHIMURIUM, Strain/Indicator: TA98, Metabolic Activation: RAT, LIVER, S-9, AROCLOR, Method: STANDARD PLATE) was “active; positive”.

In the case of `C=C1C(=O)[C@]23CCC4[C@](C)(CCC[C@@]4(C)C(=O)O)C2CC[C@@]1(O)C3` (some centres not stated), the mutagenic call (Test System: AMES SALMONELLA TYPHIMURIUM, Strain/Indicator: TM677, Metabolic Activation: NONE, Method: PREINCUBATION) is reported as “active; positive”.

In the case of `CCOP(=S)(OCC)Oc1ccc([N+](=O)[O-])cc1`, the mutagenic call [1] is reported as “inactive; negative”, the mutagenic call (Test System: AMES SALMONELLA TYPHIMURIUM, Strain/Indicator: TA98, Metabolic Activation: RAT, LIVER, S-9, KANECHLOR 500, Method: PREINCUBATION) is reported as “inactive; negative” and the mutagenic call [3] is reported as “active; positive”. The mutagenic call [7] was “inactive; negative”, the mutagenic call (Test System: AMES SALMONELLA TYPHIMURIUM, Strain/Indicator: TA100, Metabolic Activation: RAT, LIVER, S-9, KANECHLOR 500, Method: PREINCUBATION) was “active; positive” and the mutagenic call (Test System: AMES SALMONELLA TYPHIMURIUM, Strain/Indicator: TA100, Metabolic Activation: S-9, Method: STANDARD PLATE) was “active; positive”.
